Laboratory results as given in ChEMBL document CHEMBL5550103, “Design, synthesis, and antiviral activity of 1-aryl-4-arylmethylpiperazine derivatives as Zika virus inhibitors with broad antiviral spectrum” (Bioorg Med Chem, 2024).
pEC50: −log10 of the molar value. Active and inactive are the calls of the source. The rule behind the calls is not given here.

Experiments:
[1] = system: Zika virus; experiment: Antiviral activity against ZIKV infected in HUVECs pre-infected with virus followed by compound addition and measured after 48 hrs by qRT-PCR analysis; assay type: functional, organism-based; settings: HUVEC
[2] = Cytotoxicity against HUVECs assessed as reduction in cell viability incubated for 48 hrs by CCK-8 method; assay type: toxicity, cell-based; settings: human, HUVEC cells
[3] = Selectivity index, ratio of CC50 for HUVECs to EC50 for ZIKA virus infected in HUVECs; assay type: toxicity; settings: human, HUVEC cells; read-out: Ratio CC50/EC50
[4] = system: Zika virus; experiment: Antiviral activity against ZIKV infected in HUVECs at 5 uM pre-infected with virus followed by compound addition and measured after 48 hrs by qRT-PCR analysis relative to control; assay type: functional; settings: HUVEC
[5] = Cytotoxicity against HUVECs assessed as reduction in cell viability at 5 uM incubated for 48 hrs by CCK-8 method relative to control; assay type: toxicity, cell-based; settings: human, HUVEC cells, values are per cent of control
[6] = system: Zika virus; experiment: Antiviral activity against ZIKV infected in HUVECs assessed as reduction in NS5 protein level measured after 48 hrs by Western blot analysis; assay type: functional, organism-based; settings: HUVEC, dose 0.625-5 µM
[7] = system: Zika virus; experiment: Antiviral activity against ZIKV infected in HUVECs assessed as inhibition of viral replication at 10 uM pretreated with cells for 1 hr followed by viral infection for 1 hr prior to compound washout and measured after 48 hrs post infection by qRT-PCR analysis; assay type: functional, organism-based; settings: HUVEC, time 2.0 hrs
[8] = system: Zika virus; experiment: Antiviral activity against ZIKV infected in HUVECs assessed as inhibition of viral replication at 10 uM incubated for 1 hr with subsequent addition of virus followed by compound washout and measured after 48 hrs post infection by qRT-PCR analysis; assay type: functional, organism-based; settings: HUVEC
[9] = system: Zika virus; experiment: Antiviral activity against ZIKV infected in HUVECs assessed as inhibition of viral replication at 10 uM pre-infected with virus for 1 hr prior to compound addition for 1 hr followed by compound washout and measured after 48 hrs post infection by qRT-PCR analysis; assay type: functional, organism-based; settings: HUVEC
[10] = system: Zika virus; experiment: Antiviral activity against ZIKV infected in HUVECs assessed as reduction in viral attachment to AXL; assay type: functional, organism-based; settings: HUVEC
[11] = system: Human coronavirus OC43; experiment: Antiviral activity against Human coronavirus OC43 infected in BHK-21 cells assessed as inhibition of viral replication pre-infected with virus for 24 hrs followed by compound addition and measured after 48 hrs by luciferase assay; assay type: functional, organism-based; settings: Betacoronavirus 1, BHK-21
[12] = system: Influenza A virus; experiment: Antiviral activity against influenza A virus infected in HEK293T cells assessed as inhibition of viral replication pre-infected with virus followed by compound addition and measured after 24 hrs by luciferase assay; assay type: functional, organism-based; settings: HEK-293T
[13] = system: HEK-293T; experiment: Cytotoxicity against HEK293T cells assessed as reduction in cell viability at >10 uM measured after 24 hrs by CCK-8 method; assay type: toxicity, cell-based; settings: human
[14] = Metabolic stability in mouse liver microsomes assessed as half life preincubated with NADPH for 10 mins followed by compound addition and measured upto 30 mins by LC-MS/MS analysis; assay type: ADME, Microsome; settings: time < 40 min
[15] = Metabolic stability in human liver microsomes assessed as half life preincubated with NADPH for 10 mins followed by compound addition and measured upto 30 mins by LC-MS/MS analysis; assay type: ADME, Microsome; settings: time < 40 min
[16] = system: Zika virus; experiment: Antiviral activity against ZIKV infected in HUVECs assessed as reduction in NS5 protein level at 1 uM measured after 48 hrs by Western blot analysis; assay type: functional, organism-based; settings: HUVEC

CN1CC2CN(c3ccnc(CN4CCN(c5ccc(Cl)cc5)CC4)c3)CC2C1 (stereo not drawn)
pEC50 [1]: 5.91
CC50 at 48 h [2]: > 50 µM
selectivity ratio [3]: > 41

Clc1ccc(N2CCN(Cc3cc(N4CCC5(CCN(Cc6ccccc6)CC5)C4)ccn3)CC2)cc1
pEC50 [1]: 6.82
CC50 at 48 h [2]: 20.7 µM
selectivity ratio [3]: 138

Cc1ccc(N2CCN(Cc3cc(N(C)CCN(C)CCN(C)C)ccc3C(F)(F)F)CC2)cc1
inhibition at 5 µM [4]: < 10%
viability, % of control at 48 h, 5 µM [5]: 98%

CN(C)CCN(C)c1ccnc(CN2CCN(c3ccc(Cl)cc3)CC2)c1
pEC50 [1]: 6.02
CC50 at 48 h [2]: > 50 µM
selectivity ratio [3]: > 52

CN(C)CCN(C)c1ccc(C(F)(F)F)c(CN2CCN(c3ccncc3)CC2)c1
inhibition at 5 µM [4]: < 10%
viability, % of control at 48 h, 5 µM [5]: 107%

Cc1ccc(N2CCN(Cc3cc(N4CCCN(C)CC4)ccn3)CC2)cc1
inhibition at 5 µM [4]: < 10%
viability, % of control at 48 h, 5 µM [5]: 105%

CN(C)CCN(C)c1ccc(C(F)(F)F)c(CN2CCN(c3ccc(Cl)cc3)CC2)c1
pEC50 [1]: 5.95
CC50 at 48 h [2]: 22.4 µM
selectivity ratio [3]: 20

CN(C)CCN(C)CCN(C)c1ccc(C(F)(F)F)c(CN2CCN(c3ccncc3)CC2)c1
pEC50 [1]: 6.41
CC50 at 48 h [2]: > 50 µM
selectivity ratio [3]: > 128
Activity [6]: Dose-Dependent Effect
Activity [7]: Active
Activity [8]: Active
Activity [9]: inactive
Activity [10]: inactive
pEC50 [11]: 5.64
pEC50 [12]: 5.57
Activity [13]: Toxic
half-life [14]: 2.31 h
half-life [15]: > 1.53 h

CN(C)CCN(CCN(C)C)c1ccnc(CN2CCN(c3ccc(C(F)(F)F)cc3)CC2)c1
inhibition at 5 µM [4]: < 10%
viability, % of control at 48 h, 5 µM [5]: 104%

NC(=O)c1ncn([C@@H]2O[C@H](CO)[C@@H](O)[C@H]2O)n1 [RIBAVIRIN]
pEC50 [1]: 5.59
CC50 at 48 h [2]: > 150 µM
selectivity ratio [3]: > 59

CN(C)CCN(C)c1ccnc(CN2CCN(c3ccc(C(F)(F)F)cc3)CC2)c1
inhibition at 5 µM [4]: 33%
viability, % of control at 48 h, 5 µM [5]: 103%

Cc1ccc(N2CCN(Cc3cc(N4CCCN(C)CC4)ccc3C(F)(F)F)CC2)cc1
inhibition at 5 µM [4]: < 10%
viability, % of control at 48 h, 5 µM [5]: 105%

Clc1ccc(N2CCN(Cc3cc(N4CCC5(CCCN5Cc5ccccc5)C4)ccn3)CC2)cc1 (stereo not drawn)
inhibition at 5 µM [4]: 49%
viability, % of control at 48 h, 5 µM [5]: 91%

Cc1ccc(N2CCN(Cc3cc(N(C)CCN(C)C)ccn3)CC2)cc1
inhibition at 5 µM [4]: < 10%
viability, % of control at 48 h, 5 µM [5]: 101%

CN1CC2(CCN(c3ccnc(CN4CCN(c5ccc(Cl)cc5)CC4)c3)C2)C1
pEC50 [1]: 6.09
CC50 at 48 h [2]: > 50 µM
selectivity ratio [3]: > 61
Activity [6]: Dose-Dependent Effect
Activity [7]: Active
Activity [8]: Active
Activity [9]: inactive
Activity [10]: inactive
pEC50 [11]: 5.66
pEC50 [12]: 5.59
Activity [13]: Toxic
half-life [14]: 1.4 h
half-life [15]: > 1.53 h

CN1CCC2(CC1)CCN(c1ccnc(CN3CCN(c4ccc(Cl)cc4)CC3)c1)C2
pEC50 [1]: 6.23
CC50 at 48 h [2]: 31.5 µM
selectivity ratio [3]: 54

C#C[C@@]1(O)[C@H](O)[C@@H](CO)O[C@H]1n1ccc2c(N)ncnc21
Activity [16]: Active
Activity [7]: inactive
Activity [9]: Active

CN(C)CCN(C)c1ccc(C#N)c(CN2CCN(c3ccc(Cl)cc3)CC2)c1
pEC50 [1]: 5.66
CC50 at 48 h [2]: 19.8 µM
selectivity ratio [3]: 9
half-life [14]: 0.548 h
half-life [15]: > 1.53 h

CN(C)CCN(C)c1ccc(C(F)(F)F)c(CN2CCN(c3ccc(C(F)(F)F)cc3)CC2)c1
pEC50 [1]: 5.53
CC50 at 48 h [2]: 14.7 µM
selectivity ratio [3]: 5

Clc1ccc(N2CCN(Cc3cc(N4CC5CN(Cc6ccccc6)CC5C4)ccn3)CC2)cc1 (stereo not drawn)
pEC50 [1]: 5.70
CC50 at 48 h [2]: > 50 µM
selectivity ratio [3]: > 25

CN1CCCN(c2ccnc(CN3CCN(c4ccc(C(F)(F)F)cc4)CC3)c2)CC1
pEC50 [1]: 5.88
CC50 at 48 h [2]: > 50 µM
selectivity ratio [3]: 66

CN1CCCN(c2ccc(C(F)(F)F)c(CN3CCN(c4ccc(C(F)(F)F)cc4)CC3)c2)CC1
pEC50 [1]: 6.03
CC50 at 48 h [2]: 9.89 µM
selectivity ratio [3]: 11

CN1CCC2(CC1)CCN(c1ccc(C(F)(F)F)c(CN3CCN(c4ccc(C(F)(F)F)cc4)CC3)c1)C2
pEC50 [1]: 6.23
CC50 at 48 h [2]: 2.27 µM
selectivity ratio [3]: 4

CN1CCN(c2ccnc(CN3CCN(c4ccc(Cl)cc4)CC3)c2)CC1
pEC50 [1]: 5.84
CC50 at 48 h [2]: > 50 µM
selectivity ratio [3]: > 34

Cc1ccc(N2CCN(Cc3cc(N(C)CCN(C)C)ccc3C(F)(F)F)CC2)cc1
inhibition at 5 µM [4]: < 10%
viability, % of control at 48 h, 5 µM [5]: 103%

Cc1ccc(N2CCN(Cc3cc(N4CCCN5CCCC5C4)ccn3)CC2)cc1 (stereo not drawn)
inhibition at 5 µM [4]: < 10%
viability, % of control at 48 h, 5 µM [5]: 100%

CN1CCC2(CC1)CCN(c1ccnc(CN3CCN(c4ccc(C(F)(F)F)cc4)CC3)c1)C2
pEC50 [1]: 5.66
CC50 at 48 h [2]: 30.4 µM
selectivity ratio [3]: 14

CN(C)CCN(C)CCN(C)c1ccnc(CN2CCN(c3ccc(Cl)cc3)CC2)c1
pEC50 [1]: 6.06
CC50 at 48 h [2]: > 50 µM
selectivity ratio [3]: > 58

Cc1ccc(N2CCN(Cc3cc(N4CCC5(CCN(C)CC5)C4)ccn3)CC2)cc1
inhibition at 5 µM [4]: < 10%
viability, % of control at 48 h, 5 µM [5]: 100%
